Experimental data from US20260207602A1, “EGFR INHIBITORS” (Blueprint Medicines Corporation, priority 2022, published 2026).

Legend:
EGFR L858R = biological target: T1, EGFR L858R (Homo sapiens, UniProt P00533, L858R); assay: Biochemical EGFR inhibition assay (Caliper mobility shift), EGFR L858R; settings: biochemical Caliper mobility shift assay, EGFR L858R enzyme; read-out: Enz EGFR L858R IC50
T1 construct: purchased SignalChem E10-122BG
Procedure, shortened: (§1)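 Kinase activity measured as phosphorylation of 2.5 µM 5-FAM-labelled peptide substrate in 100 mM HEPES pH 7.5, 10 mM MgCl2, 0.015% Brij-35, 1 mM DTT, 1.0% DMSO, at 1.0 mM ATP or ATP Km. Run at 25 °C to 10–20% conversion, stopped with EDTA; product resolved by mobility shift, apparent IC50 from percent activity vs log concentration.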

EGFR (d746-750) = biological target: T2, EGFR (d746-750) (Homo sapiens, UniProt P00533, DEL746-750); assay: Biochemical EGFR inhibition assay (Caliper mobility shift), EGFR (d746-750); settings: biochemical Caliper mobility shift assay, EGFR Exon 19-del enzyme; read-out: Enz EGFR Exon 19-del IC50
T2 construct: purchased SignalChem E10-122JG
Procedure, shortened: as §1

[1] = biological target: intracellular phosphorylation of EGFR (Tyr1068) in PC-9 cells (Homo sapiens, UniProt P00533, DEL746-750); assay: PC-9 pEGFR AlphaLISA assay; assay type: cell-based; settings: 4 hours incubation, read-out: Phos EGFR PC9 IC50
Procedure, shortened: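 PC-9 cells (EGFR del746-750) in phenol-free DMEM/10% FBS, adhered overnight, then exposed to 10-point 4-fold compound dilutions for 4 h at 37 °C. Lysates assayed for pEGFR Tyr1068 by AlphaLISA SureFire Ultra; IC50 from percent pEGFR inhibition vs log concentration.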

T2 sequence (P00533 with tags, fused parts or gaps DEL746-750 limits assumed): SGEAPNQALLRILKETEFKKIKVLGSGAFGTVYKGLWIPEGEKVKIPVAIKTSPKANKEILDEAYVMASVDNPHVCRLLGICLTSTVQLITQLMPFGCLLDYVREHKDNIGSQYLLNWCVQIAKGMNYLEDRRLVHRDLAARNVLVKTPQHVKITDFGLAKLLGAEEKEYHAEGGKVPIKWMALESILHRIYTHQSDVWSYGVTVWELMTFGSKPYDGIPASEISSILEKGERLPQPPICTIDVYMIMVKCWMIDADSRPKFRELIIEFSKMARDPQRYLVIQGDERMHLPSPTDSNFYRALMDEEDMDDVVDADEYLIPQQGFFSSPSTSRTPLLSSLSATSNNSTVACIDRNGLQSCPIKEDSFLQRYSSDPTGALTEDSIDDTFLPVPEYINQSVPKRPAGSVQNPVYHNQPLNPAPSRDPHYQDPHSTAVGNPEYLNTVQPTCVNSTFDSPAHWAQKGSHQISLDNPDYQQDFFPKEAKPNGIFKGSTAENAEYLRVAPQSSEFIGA
Sequence of intracellular phosphorylation of EGFR (Tyr1068) in PC-9 cells (P00533 with tags, fused parts or gaps DEL746-750): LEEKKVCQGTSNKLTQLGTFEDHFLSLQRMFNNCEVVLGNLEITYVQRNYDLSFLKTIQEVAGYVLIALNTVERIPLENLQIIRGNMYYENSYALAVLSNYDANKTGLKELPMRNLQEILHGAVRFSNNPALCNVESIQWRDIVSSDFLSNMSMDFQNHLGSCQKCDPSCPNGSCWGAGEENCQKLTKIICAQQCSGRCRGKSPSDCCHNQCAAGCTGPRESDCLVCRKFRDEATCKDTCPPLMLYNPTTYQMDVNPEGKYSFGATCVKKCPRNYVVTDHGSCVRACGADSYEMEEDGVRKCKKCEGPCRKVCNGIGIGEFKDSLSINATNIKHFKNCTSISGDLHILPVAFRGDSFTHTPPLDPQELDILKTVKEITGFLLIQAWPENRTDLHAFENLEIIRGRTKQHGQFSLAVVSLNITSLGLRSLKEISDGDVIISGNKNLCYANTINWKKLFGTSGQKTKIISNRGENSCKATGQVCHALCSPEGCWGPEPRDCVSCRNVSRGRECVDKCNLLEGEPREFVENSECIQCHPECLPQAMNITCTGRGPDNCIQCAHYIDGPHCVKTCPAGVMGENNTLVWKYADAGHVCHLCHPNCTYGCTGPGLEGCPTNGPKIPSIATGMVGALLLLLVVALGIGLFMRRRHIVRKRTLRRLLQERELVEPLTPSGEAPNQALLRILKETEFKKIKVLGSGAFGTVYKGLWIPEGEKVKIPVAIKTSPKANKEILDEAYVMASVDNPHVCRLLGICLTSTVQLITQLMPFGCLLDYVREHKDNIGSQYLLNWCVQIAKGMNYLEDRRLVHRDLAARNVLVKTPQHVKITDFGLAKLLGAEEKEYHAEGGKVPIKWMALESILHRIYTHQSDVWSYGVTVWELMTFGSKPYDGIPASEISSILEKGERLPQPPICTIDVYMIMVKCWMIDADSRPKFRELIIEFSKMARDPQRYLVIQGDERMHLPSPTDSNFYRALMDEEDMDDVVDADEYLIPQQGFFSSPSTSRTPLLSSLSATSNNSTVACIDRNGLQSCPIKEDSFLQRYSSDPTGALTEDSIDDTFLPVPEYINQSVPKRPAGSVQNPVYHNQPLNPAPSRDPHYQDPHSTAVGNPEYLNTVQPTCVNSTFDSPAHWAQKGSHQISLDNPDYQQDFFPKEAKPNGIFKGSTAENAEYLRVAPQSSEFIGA
T1 sequence (P00533 25-1210 L858R): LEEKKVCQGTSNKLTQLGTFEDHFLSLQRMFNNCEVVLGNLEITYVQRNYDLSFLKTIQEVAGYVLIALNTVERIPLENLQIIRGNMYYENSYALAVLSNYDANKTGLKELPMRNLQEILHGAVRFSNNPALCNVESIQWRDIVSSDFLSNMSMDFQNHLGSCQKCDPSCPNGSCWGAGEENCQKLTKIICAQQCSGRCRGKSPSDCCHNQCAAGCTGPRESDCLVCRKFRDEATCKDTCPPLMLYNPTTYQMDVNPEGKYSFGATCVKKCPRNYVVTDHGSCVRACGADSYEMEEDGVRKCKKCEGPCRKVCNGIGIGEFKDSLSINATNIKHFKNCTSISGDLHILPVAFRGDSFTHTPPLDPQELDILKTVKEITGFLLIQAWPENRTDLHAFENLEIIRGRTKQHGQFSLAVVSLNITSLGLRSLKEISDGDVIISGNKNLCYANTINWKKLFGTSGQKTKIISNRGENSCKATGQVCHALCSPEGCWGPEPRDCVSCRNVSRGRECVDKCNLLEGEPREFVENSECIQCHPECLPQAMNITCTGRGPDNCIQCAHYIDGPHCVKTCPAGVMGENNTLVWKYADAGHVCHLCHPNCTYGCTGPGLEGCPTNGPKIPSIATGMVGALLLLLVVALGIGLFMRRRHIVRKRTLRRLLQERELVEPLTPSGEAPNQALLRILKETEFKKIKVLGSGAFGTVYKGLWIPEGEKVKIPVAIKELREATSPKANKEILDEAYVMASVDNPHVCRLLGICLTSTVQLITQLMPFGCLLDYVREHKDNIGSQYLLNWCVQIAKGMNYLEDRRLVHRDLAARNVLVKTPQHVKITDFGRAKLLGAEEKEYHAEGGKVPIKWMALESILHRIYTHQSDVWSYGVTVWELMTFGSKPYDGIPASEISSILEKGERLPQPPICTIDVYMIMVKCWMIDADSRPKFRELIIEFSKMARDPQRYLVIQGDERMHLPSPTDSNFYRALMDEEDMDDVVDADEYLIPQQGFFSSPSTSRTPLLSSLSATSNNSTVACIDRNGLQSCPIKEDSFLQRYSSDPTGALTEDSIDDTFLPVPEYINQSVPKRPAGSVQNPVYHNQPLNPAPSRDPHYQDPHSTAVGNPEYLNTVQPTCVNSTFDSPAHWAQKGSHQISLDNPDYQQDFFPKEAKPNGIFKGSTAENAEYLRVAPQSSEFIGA

SMILES | IC50 (EGFR L858R) [nM] | IC50 (EGFR (d746-750)) [nM] | IC50 [1] [nM]
COc1cn(C)nc1-c1cc(OC2CCN(C)CC2)c2c(Nc3ccc4ncsc4c3)ncnc2c1 [Example 314, N-(7-(4-methoxy-1-methyl-1H-pyrazol-3-yl)-5-((1-methylpiperidin-4-yl)oxy)quinazolin-4-yl)benzo[d]thiazol-6-amine] | ≤ 10 | ≤ 10 | ≤ 10
C[C@@H]1OC[C@H]1Oc1cc(-c2cnn(C)c2)cc2ncnc(Nc3ccc4ncsc4c3)c12 (racemic) [Example 10, trans-N-(7-(1-methyl-1H-pyrazol-4-yl)-5-(((2S,3S)-2-methyloxetan-3-yl)oxy)quinazolin-4-yl)benzo[d]thiazol-6-amine] | ≤ 10 | ≤ 10 | 10.1 to 50
C[C@@H](Oc1cc(-c2cnn(C)c2)cc2ncnc(Nc3ccc4ncsc4c3)c12)C1CC1 [Example 65, (R)-N-(5-(1-cyclopropylethoxy)-7-(1-methyl-1H-pyrazol-4-yl)quinazolin-4-yl)benzo[d]thiazol-6-amine] | ≤ 10 | ≤ 10 | ≤ 10
OC(Cn1cc(-c2cc(OC3CCOCC3)c3c(Nc4ccc5ncsc5c4)ncnc3c2)cn1)C(F)(F)F (stereo not drawn) [Example A57, 3-(4-(4-(benzo[d]thiazol-6-ylamino)-5-((tetrahydro-2H-pyran-4-yl)oxy)quinazolin-7-yl)-1H-pyrazol-1-yl)-1,1,1-trifluoropropan-2-ol] | ≤ 10 | ≤ 10 | 10.1 to 50
Cn1cc(-c2cc(O[C@H]3CCCNC3)c3c(Nc4ccc5ncsc5c4)ncnc3c2)cn1 [Example 134, (S)-N-(7-(1-methyl-1H-pyrazol-4-yl)-5-(piperidin-3-yloxy)quinazolin-4-yl)benzo[d]thiazol-6-amine] | ≤ 10 | ≤ 10 | 10.1 to 50
CN1CC[C@H](Oc2cc(-c3cn(C)nc3OC(F)F)cc3ncnc(Nc4ccc5ncsc5c4)c23)[C@H](F)C1 [Example 367, N-(7-(3-(difluoromethoxy)-1-methyl-1H-pyrazol-4-yl)-5-(((3R,4S)-3-fluoro-1-methylpiperidin-4-yl)oxy)quinazolin-4-yl)benzo[d]thiazol-6-amine] | 10.1 to 50 | ≤ 10 | 10.1 to 50
C[C@@H](Oc1cc(-c2cnn(C)c2)cc2ncnc(Nc3ccc4ncsc4c3)c12)C1COC1 [Example 133, (R)—N-(7-(1-methyl-1H-pyrazol-4-yl)-5-(1-(oxetan-3-yl)ethoxy)quinazolin-4-yl)benzo[d]thiazol-6-amine] | ≤ 10 | ≤ 10 | ≤ 10
CO[C@@H]1CCN(c2cc(O[C@H](C)C3COC3)c3c(Nc4ccc5ncsc5c4)ncnc3c2)C1 [Example 198, N-(7-((R)-3-methoxypyrrolidin-1-yl)-5-((R)-1-(oxetan-3-yl)ethoxy)quinazolin-4-yl)benzo[d]thiazol-6-amine] | ≤ 10 | ≤ 10 | ≤ 10
Cn1ccc(-c2cc3ncnc(Nc4ccc5ncsc5c4)c3cc2NC2CCNCC2)n1 [Example 266, N4-(benzo[d]thiazol-6-yl)-7-(1-methyl-1H-pyrazol-3-yl)-N6-(piperidin-4-yl)quinazoline-4,6-diamine] | ≤ 10 | ≤ 10 | 10.1 to 50
COc1nn(C)cc1-c1cc(O[C@H]2COC[C@@H]2O)c2c(Nc3ccc4ncsc4c3)ncnc2c1 (single isomer, unassigned) [Example A49] | 10.1 to 50 | ≤ 10 | 10.1 to 50
CN1CC[C@H](Oc2cc(-c3cnn(C)c3)cc3ncnc(Nc4ccc5ncsc5c4F)c23)C1=O (single isomer, unassigned) [Example 72] | ≤ 10 | ≤ 10 | ≤ 10
C[C@H]([C@@H](C)Oc1cc(-c2cnn(C)c2)cc2ncnc(Nc3ccc4ncsc4c3)c12)N(C)C (single isomer, unassigned) [Example 143] | ≤ 10 | ≤ 10 | ≤ 10
CC(C)Oc1cc(O[C@H](C)C2COC2)c2c(Nc3ccc4ncsc4c3)ncnc2c1 [Example 125, (R)-N-(7-isopropoxy-5-(1-(oxetan-3-yl)ethoxy)quinazolin-4-yl)benzo[d]thiazol-6-amine] | ≤ 10 | ≤ 10 | 10.1 to 50
COCCN1CCC(Oc2cc(-c3cnn(C)c3)cc3ncnc(Nc4ccc5ncsc5c4F)c23)CC1 [Example 316, 7-fluoro-N-(5-((1-(2-methoxyethyl)piperidin-4-yl)oxy)-7-(1-methyl-1H-pyrazol-4-yl)quinazolin-4-yl)benzo[d]thiazol-6-amine] | 10.1 to 50 | ≤ 10 | 10.1 to 50
C[C@@H](Oc1cc(-c2cnn(C)c2)cc2ncnc(Nc3ccc4ncsc4c3F)c12)[C@H]1CCCO1 [Example 113, 7-fluoro-N-(7-(1-methyl-1H-pyrazol-4-yl)-5-((R)-1-((R)-tetrahydrofuran-2-yl)ethoxy)quinazolin-4-yl)benzo[d]thiazol-6-amine] | ≤ 10 | ≤ 10 | ≤ 10
COc1nn(C)cc1-c1cc(O[C@@H]2COC[C@H]2F)c2c(Nc3ccc4ncsc4c3)ncnc2c1 (racemic) [Example 8, trans-N-(5-((-4-fluorotetrahydrofuran-3-yl)oxy)-7-(3-methoxy-1-methyl-1H-pyrazol-4-yl)quinazolin-4-yl)benzo[d]thiazol-6-amine] | 10.1 to 50 | ≤ 10 | 10.1 to 50
CC(Oc1cc(-c2cn[nH]c2)cc2ncnc(Nc3ccc4ncsc4c3)c12)C1COC1 (single isomer, unassigned) [Example 122] | ≤ 10 | ≤ 10 | ≤ 10
CCN1CCC(Oc2cc(-c3cnn(C)c3)cc3ncnc(Nc4ccc5ncsc5c4)c23)CC1 [Example 309, N-(5-((1-ethylpiperidin-4-yl)oxy)-7-(1-methyl-1H-pyrazol-4-yl)quinazolin-4-yl)benzo[d]thiazol-6-amine] | ≤ 10 | ≤ 10 | ≤ 10
CN1CCC(Oc2cc(-c3cn(C)nc3OC(F)F)cc3ncnc(Nc4ccc5ncsc5c4)c23)CC1 [Example A18, N-(7-(3-(difluoromethoxy)-1-methyl-1H-pyrazol-4-yl)-5-((1-methylpiperidin-4-yl)oxy)quinazolin-4-yl)benzo[d]thiazol-6-amine] | 10.1 to 50 | ≤ 10 | 10.1 to 50
CN(C)C1CCC(Oc2cc(-c3cnn(C)c3)cc3ncnc(Nc4ccc5ncsc5c4)c23)CC1 (stereo not drawn) [Example 21, N-(5-((4-(dimethylamino)cyclohexyl)oxy)-7-(1-methyl-1H-pyrazol-4-yl)quinazolin-4-yl)benzo[d]thiazol-6-amine] | ≤ 10 | ≤ 10 | ≤ 10
C[C@@H](Oc1cc(-c2cnn(CC(C)(C)O)c2)cc2ncnc(Nc3ccc4ncsc4c3)c12)C1COC1 (single isomer, unassigned) [Example 127] | ≤ 10 | ≤ 10 | ≤ 10
CN1CC[C@@H](Oc2cc(-c3cnn(C)c3)cc3ncnc(Nc4ccc5ncsc5c4F)c23)[C@H](F)C1 [Example 349, 7-fluoro-N-(5-(((3R,4R)-3-fluoro-1-methylpiperidin-4-yl)oxy)-7-(1-methyl-1H-pyrazol-4-yl)quinazolin-4-yl)benzo[d]thiazol-6-amine] | ≤ 10 | ≤ 10 | ≤ 10
Cn1cc(-c2cc(OCCO)c3c(Nc4ccc5ncsc5c4)ncnc3c2)cn1 [Example 30, 2-((4-(benzo[d]thiazol-6-ylamino)-7-(1-methyl-1H-pyrazol-4-yl)quinazolin-5-yl)oxy)ethan-1-ol] | ≤ 10 | ≤ 10 | 10.1 to 50
Cn1cc(-c2cc(O[C@@H]3CNC[C@H](F)C3)c3c(Nc4ccc5ncsc5c4)ncnc3c2)cn1 (single isomer, unassigned) [Example 335] | ≤ 10 | ≤ 10 | ≤ 10
CN1CC[C@H](Nc2cc3c(Nc4ccc5ncsc5c4)ncnc3cc2-c2ccn(C)n2)[C@H](F)C1 (single isomer, unassigned) [Example A05, N4-(benzo[d]thiazol-6-yl)-N6-((3R,4S)-3-fluoro-1-methylpiperidin-4-yl)-7-(1-methyl-1H-pyrazol-3-yl)quinazoline-4,6-diamine or N4-(benzo[d]thiazol-6-yl)-N6-((3S,4R)-3-fluoro-1-methylpiperidin-4-yl)-7-(1-methyl-1H-pyrazol-3-yl)quinazoline-4,6-diamine] | ≤ 10 | ≤ 10 | ≤ 10
Cn1cc(-c2cc(O[C@@H]3CC[C@H]3O)c3c(Nc4ccc5ncsc5c4)ncnc3c2)cn1 [Example 186, (1R,2R)-2-((4-(benzo[d]thiazol-6-ylamino)-7-(1-methyl-1H-pyrazol-4-yl)quinazolin-5-yl)oxy)cyclobutan-1-ol] | ≤ 10 | ≤ 10 | ≤ 10
C[C@@H](Oc1cc(N2CCN(C)CC2)cc2ncnc(Nc3ccc4ncsc4c3F)c12)C1COC1 (single isomer, unassigned) [Example 94] | ≤ 10 | ≤ 10 | 10.1 to 50
Cn1cc(-c2cc(OC[C@@H]3CCCO3)c3c(Nc4ccc5ncsc5c4)ncnc3c2)cn1 [Example 32, (S)-N-(7-(1-methyl-1H-pyrazol-4-yl)-5-((tetrahydrofuran-2-yl)methoxy)quinazolin-4-yl)benzo[d]thiazol-6-amine] | ≤ 10 | ≤ 10 | 10.1 to 50
